Experimental data reported in patent US6313180A, “Steroid compounds having contraceptive and anti-osteoporosis activity” (priority 1997, dated 2001).

Experiments:
[1] = McPhail test for progestagenic activity in vivo; settings: oral administration; progestagenic activity; read-out: McPhail ED50
[2] = molecular target: T1, human estradiol (E) receptor (Homo sapiens, UniProt P03372); type: binding
T1 construct: present in human breast tumor cells (MCF-7 cells); endogenous in cells; host or cells: MCF-7 human breast tumor cells
T1 sequence (P03372 1-595): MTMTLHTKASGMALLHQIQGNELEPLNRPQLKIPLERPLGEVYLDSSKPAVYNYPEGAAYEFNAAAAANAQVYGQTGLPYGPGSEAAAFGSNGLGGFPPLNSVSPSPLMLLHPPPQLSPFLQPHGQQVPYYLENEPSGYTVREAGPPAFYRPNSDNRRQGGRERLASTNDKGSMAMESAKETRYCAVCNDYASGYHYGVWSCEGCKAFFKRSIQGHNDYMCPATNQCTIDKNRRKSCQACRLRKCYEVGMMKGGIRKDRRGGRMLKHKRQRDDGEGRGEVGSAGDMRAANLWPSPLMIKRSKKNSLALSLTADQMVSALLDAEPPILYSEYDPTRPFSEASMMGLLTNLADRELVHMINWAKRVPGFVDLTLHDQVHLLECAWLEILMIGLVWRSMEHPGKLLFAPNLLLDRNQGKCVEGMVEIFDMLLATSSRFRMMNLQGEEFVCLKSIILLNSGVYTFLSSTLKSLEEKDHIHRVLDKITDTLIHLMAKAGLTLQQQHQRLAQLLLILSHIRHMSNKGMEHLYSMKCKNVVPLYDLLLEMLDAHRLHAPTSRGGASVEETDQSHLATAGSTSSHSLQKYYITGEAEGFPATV
Method: The relative estradiol receptor binding affinity was measured in the same manner as described above but using 17βestradiol as a reference.
(§1) Several of the compounds according to the Examples I-VI, as well as other compounds according to the invention synthesized in analogous manner, were subjected to the tests described in the Examples VII and VIII. The results are described in the Table, in which the type of A-ring and the substitution at carbon atoms nos. 7, 11, and 17 is indicated. In the columns captioned E and P, the relative binding affinities for the estrogen and progesterone receptors are given; the ED50 results of the AllenDoisy and the McPhail tests have been indicated in μg/kg. In the column captioned "Osteoporosis", the ED50 results of the anti-osteoporosis test are given (dose in μg/kg, day, as described above).

[3] = test system: human progesterone (P) receptor; assay: Relative progesterone receptor binding affinity, cytoplasmic receptors of MCF-7 cells; settings: relative to (16α)-16-ethyl-21-hydroxy-19-norpregn-4-ene-3,20-dione, 16 h, 4° C
ovariectomised rats = assay: Prevention of ovariectomy-induced bone loss in rats (anti-osteoporosis test, pQCT trabecular bone mineral density); type: in vivo, rat (female Wistar); settings: Rattus norvegicus, 672 h; oral administration; ovariectomised rats, once or twice daily for 4 weeks; 40-60% proportional difference in trabecular bone mineral density; read-out: Osteoporosis ED50
From the text: Ovariectomy induces in rats bone loss, which is due to oestrogen deficiency. Administration of oestrogenic compounds prevents this effect. The test is used to evaluate a compound for anti-osteoporotic activity in ovariectomised rats. The effect on bone mass can be evaluated by peripheral Quantitave Computed Tomography (pQCT) measurement of trabecular bone mineral density.
Mature virgin female Wistar rats preferentially, 225-250 g. Strain: Hsd/Cpd:Wu, SPF-bred by Harlan, CPB, Zeist, The Netherlands.
On day 1 of the experiment the rats are weighed and distributed over the cages in order of body weight. The rat with the lowest body weight in the first cage and the heaviest rat in the last cage. Treatments are randomized over the rats per block. A block (group of 3+n treatments) consists of 1 Intact placebo rat, 1 OVX placebo rat, 1 OVX reference rat and 1 rat of each n treatments.
Sham-operation and ovariectomy are performed under ether anaesthesia. After recovery from the anaesthesia, within 24 h, vehicle, reference compound or test compound is administered once or twice daily for 4 weeks.
Trabecular bone mineral density (mg/cm^3) of the metaphyseal part of the femur was measured with a pQCT (peripheral Quantitative Computed Tomography machine; XCT 960A, Stratec, Birkenfeld, Germany) directly after autopsy on fresh tissue. Two 360° scans, which have, due to the X-ray beam, a standard thickness of 1 mm were taken. The scans have a resolution of 0.148×0.148 mm. One scan was taken at 5.5 mm from the distal end of the femur, where trabecular bone mineral density of the metaphyseal part was measured. The other scan was taken in the diaphysis at 13.5 mm from the distal end, which contains no trabecular bone. In the latter scan cortical bone mineral density and the geometrical parameters, such as cortical thickness, total bone area, outer and inner diameter, were determined. Intra- and inter-assay variation for the measurement of trabecular bone mineral density in the distal femur were about 2-3%. The XCT-960A was calibrated with a standard of hydroxyapatite embedded in acrylic plastic.
Ovariectomy causes a statistically significant decrease in trabecular bone mineral density (P≤0.05, 2 way ANOVA).
The active dose (ED50) is the dose where a mean proportional difference in trabecular bone mineral density between 40 and 60% is reached as compared to the sham and ovariectomised group.
as §1

[4] = Allen Doisy test for estrogenic activity in vivo; settings: oral administration; estrogenic activity; read-out: AllenDoisy ED50

CCC[C@@H]1Cc2cc(O)ccc2[C@H]2CC[C@@]3(C)[C@@H](C[C@H]4C[C@@H](C)C[C@]43O)[C@H]12 [Code 38514]
ED50 [1]: > 2 mg/kg
Relative binding affinity to the human estradiol (E) receptor [2]: 11%
Relative binding affinity to the human progesterone (P) receptor [3]: 4%
ED50 (ovariectomised rats): < 0.032 mg/kg
ED50 [4]: 0.024 mg/kg
